SMILES strings stand for the structures. pIC50: −log10 of the molar value.

One test deals with reaction of the MCA produced by hybridoma 11-50 with human colon cancer cell line SW480. The test can be described thus: Inhibition of the reaction of the MCA with immobilized SW480 cells (ELISA). Type of test: binding. Conditions: SW480, result in words. On the procedure: It was determined by the ELISA. As an antigen, 10 µg/ml asialofetuin (SIGMA) solution in 0.1 M borate buffer (pH 8.6) whose 100 ul was immobilized to each well of the Falcon microtest III plate (96 wells) was used. The supernatant of the hybridoma culture mixture was added to the plate with 50 µl every well and allowed to stand at room temperature for 1 hour. The wells were washed with 1 % bovine serum albumin (abbreviated to BSA hereinafter)-containing Hanks' buffer salt solution (abbreviated to HBSS-B) 3 times, then 100 µl of 0.6 mg/ml p-nitrophenyl phosphate solution in 1 M diethanolamine + 1 mM MgCl2 (pH 9.8) were added. After 30 to 60 minutes, the absorbance at 405 nm wavelength was measured to select the hybridomas with antibody activity.
Fifty microliters of 30-fold diluted culture supernatant of hybridoma 11-50 with HBSS-B and fifty microliters of a variety of protein solutions diluted stepwise with HBSS-B (described in Table 3) were mixed beforehand, then 50 µl of the mixture was added to a -96-well plate to which human colon cancer cell line SW480 had been immobilized with glutaraldehyde, then allowed to stand at room temperature for 1 hour. The following procedures were done according to the method described in Example 1-(3).
Inhibitory activity in % = [1 - (A405 in the presence of an inhibitor)/(A405-in the absence of an inhibitor)]
Various kinds of oligosaccharides (listed in Table 4) were diluted stepwise with HBSS-B and the solutions were used to conduct the evaluation according to the method ,described in Example 4-(1).
(In general: An ELISA detects its analyte on a solid surface through an enzyme-linked reagent.)
With `CC(=O)N[C@H]1[C@H](O[C@H]2[C@@H](O)[C@@H](CO)O[C@@H](O[C@H]3[C@H](O)[C@@H](O)C(O)O[C@@H]3CO)[C@@H]2O)O[C@H](CO)[C@@H](O)[C@@H]1O[C@@H]1O[C@H](CO)[C@H](O)[C@H](O)[C@H]1O` (stereo partly drawn) [Lacto-N-tetraose, Galβ1→3GlcNAcβ1→3Galβ1→4Glc], the “inhibitory action of oligosaccharides” value is given as “strongest inhibition”.

The same test, now with this note: SW480; read-out: IC50 (concentration of oligosaccharides inhibiting the bonding of MCA to the cancer cells by 50%).
As to `O=C[C@H](O)[C@@H](O)[C@H](O[C@@H]1O[C@H](CO)[C@@H](O)[C@H](O)[C@H]1O)[C@H](O)CO` [Cellobiose, Galβ1→4Glc], the pIC50 is less than 1.30.

Consider `OC[C@H]1O[C@@H](O[C@H]2[C@H](O)[C@@H](O)C(O)O[C@@H]2CO)[C@H](O)[C@@H](O)[C@H]1O` (stereo partly drawn) [Lactose, Galβ1→4Glc], for which the pIC50 is 1.68.

`CC(=O)N[C@H]1[C@H](O[C@H]2[C@@H](O)[C@@H](CO)O[C@@H](O[C@H]3[C@H](O)[C@@H](O)C(O)O[C@@H]3CO)[C@@H]2O)O[C@H](CO)[C@@H](O)[C@@H]1O[C@@H]1O[C@H](CO)[C@H](O)[C@H](O)[C@H]1O` (stereo partly drawn) [Lacto-N-tetraose, Galβ1→3GlcNAcβ1→3Galβ1→4Glc]: the pIC50 was 3.17.

In the case of `CO[C@@H]1O[C@H](CO)[C@@H](O[C@@H]2O[C@H](CO)[C@H](O)[C@H](O)[C@H]2O)[C@H](O)[C@H]1NC(C)=O` [Galβ1→4GlcNAcβ1-OMe], the pIC50 was less than 2.30.

As to `CO[C@H]1O[C@H](CO)[C@H](O)[C@H](O[C@@H]2O[C@H](CO)[C@H](O)[C@H](O)[C@H]2O)[C@H]1NC(C)=O` [Galβ1→3GalNAcα1-OMe], the pIC50 was 2.55.

Values taken from patent publication EP0407586A1, “HUMAN MONOCLONAL ANTIBODY AND PROCESS FOR ITS PREPARATION” (TEIJIN LIMITED, priority 1988, dated 1990).
